Patent US8003649B2 (AstraZeneca AB, priority 2007, dated 2011)

The compounds below were run against T1, Androgen Receptor (AR) (Homo sapiens, UniProt P10275, T878A) (assay: LNCaP Androgen Receptor Down-regulation Cell Assay (immunofluorescence end point)). Conditions: LNCaP prostate carcinoma cells, compound incubation 20-22 hours, 50% reduction of the AR signal; read-out: Androgen Receptor Down-regulation Assay (a) IC50/μM.
T1 construct: cell based immuno-fluorescence assay using the LNCaP prostate epithelial cell line; endogenous in cells; host or cells: LNCaP clone FGC (ATCC CRL-1740)
T1 sequence (P10275 1-920 T878A): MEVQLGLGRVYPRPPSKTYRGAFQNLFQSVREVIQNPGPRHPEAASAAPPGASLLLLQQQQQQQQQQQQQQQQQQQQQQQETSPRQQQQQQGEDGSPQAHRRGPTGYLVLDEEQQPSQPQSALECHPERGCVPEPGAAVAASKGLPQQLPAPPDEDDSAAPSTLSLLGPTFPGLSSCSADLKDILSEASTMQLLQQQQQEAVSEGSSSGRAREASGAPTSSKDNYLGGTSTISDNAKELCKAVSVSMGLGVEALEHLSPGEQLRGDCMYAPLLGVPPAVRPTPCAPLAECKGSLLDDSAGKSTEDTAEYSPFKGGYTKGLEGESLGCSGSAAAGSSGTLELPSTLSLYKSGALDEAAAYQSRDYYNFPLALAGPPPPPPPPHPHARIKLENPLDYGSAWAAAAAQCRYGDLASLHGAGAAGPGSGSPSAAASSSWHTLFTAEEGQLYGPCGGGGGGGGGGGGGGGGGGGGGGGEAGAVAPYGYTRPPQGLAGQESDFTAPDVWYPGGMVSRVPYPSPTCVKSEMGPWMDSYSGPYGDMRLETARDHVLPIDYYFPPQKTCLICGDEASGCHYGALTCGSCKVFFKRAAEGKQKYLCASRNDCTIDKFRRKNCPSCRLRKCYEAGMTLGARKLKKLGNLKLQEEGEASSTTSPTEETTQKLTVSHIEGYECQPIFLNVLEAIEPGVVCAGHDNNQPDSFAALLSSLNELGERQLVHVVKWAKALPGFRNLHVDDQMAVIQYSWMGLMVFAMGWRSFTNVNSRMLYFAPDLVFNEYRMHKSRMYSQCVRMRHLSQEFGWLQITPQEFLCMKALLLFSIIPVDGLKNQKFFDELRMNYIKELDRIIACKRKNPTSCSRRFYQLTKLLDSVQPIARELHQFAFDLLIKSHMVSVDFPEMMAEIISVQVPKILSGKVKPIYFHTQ
Type: cell-based
Method: The ability of compounds to reduce Androgen Receptor (AR) numbers was assessed in a cell based immuno-fluorescence assay using the LNCaP prostate epithelial cell line.
a) LNCaP Androgen Receptor Down-regulation Cell Assay
A 5 ml volume of Growth Medium was added to each flask (as above except that 5% (v/v) charcoal stripped FBS (HyClone Code no. SH30068.03) was included instead of 10% (v/v) FBS). Cells were syringed at least twice using a sterile 18G×1.5″ (1.2×40 mm) broad gauge needle and cell density was measured using a haemocytometer.
Test data reported herein was generated using two different compounds preparation and dosing methods. In method (1) a 10 mM compound stock solution in 100% (v/v) DMSO was serially diluted in 4-fold steps in 100% (v/v) DMSO using a Thermo Scientific Matrix SerialMate. The diluted compounds were then further diluted 1 in 30 in assay media using a Thermo Scientific Matrix PlateMate and a 10 μl aliquot of this dilution was dosed to cells manually using a multi-channel pipette. In method (2) starting with a 10 mM compound stock solution, the Labcyte Echo 550 was used to generate a compound concentration response set diluted in 30 μl of assay media. The Echo 550 is a liquid handler that uses acoustic technology to perform direct microplate-to-microplate transfers of DMSO compound solutions. The system can be programmed to transfer volumes as low as […] in multiple increments between microplates and in so doing generates a serial dilution of compound which is then back-filled to normalise the DMSO concentration across the dilution range. A 10 μl volume of diluted compound is then dosed to cells using a Thermo Scientific Matrix PlateMate.
Plates were incubated overnight at 37° C., 5% CO2. Wells were then dosed with compound prepared by one of the 2 methods above and further incubated for 20-22 hours at 37° C., 5% CO2. […] This fixative solution was removed and cells were washed with 250 μl of PBS/0.05% (v/v) Tween 20 (PBST) using an automated plate washer. This process was then repeated twice more.
Immunostaining was performed at room temperature. Cells were permeabilised by the addition of 35 μl of PBS containing 0.5% Tween 20 and incubated for 1 hour at room temperature. Permeabilisation solution was removed and cells were washed with 250 μl of PBST using an automated plate washer. This process was then repeated twice more. 35 μl of Blocking Solution (PBST containing 3% (w/v) Marvel dried skimmed milk (Nestle)) was added to each well and plates were incubated at room temperature for a minimum of 1 hour. […] Then this primary antibody solution was removed from the wells followed by 3×100 μl PBST washes using a plate washer. […] Henceforth, wherever possible, plates were protected from light exposure. The plates were incubated for 1 hour and then the secondary antibody solution was removed from the wells followed by 3×100 ul PBST washes using a plate washer. Then 50 μl of PBST was added to each well and plates were covered with a black plate seal and stored at 4° C. before being read. Plates were read within six hours of completing the immunostaining.
The Green Fluorescent AR-associated signal in each well was measured using an Acumen Explorer HTS Reader (TTP Labtech Ltd., Cambridge). […] The instrument is a laser-scanning fluorescence microplate cytometer which samples the well at regular intervals and uses threshold algorithms to identify all fluorescent intensities above the solution background without the need to generate and analyse an image. These fluorescent objects can be quantified and provide a measure of the AR levels in cells. Fluorescence dose response data obtained with each compound was exported into a suitable software package (such as Origin) to perform curve fitting analysis. Down-regulation of AR levels was expressed as an IC50 value.

Structure (SMILES) | DC50 [µM]
FC(F)(F)c1nnc2ccc(N3CCN(C(c4ccccc4)c4ccccc4)CC3)nn12 [Example 22, 6-(4-benzhydrylpiperazin-1-yl)-3-(trifluoromethyl)-[1,2,4]triazolo[4,3-b]pyridazine] | 1.4
FC(F)(F)c1nnc2ccc(N3CCN(CCc4ccccc4)CC3)nn12 [Example 23, 6-(4-phenethylpiperazin-1-yl)-3-(trifluoromethyl)-[1,2,4]triazolo[4,3-b]pyridazine] | 0.45
O=C(CN1CCN(c2ccc3nnc(C(F)(F)F)n3n2)CC1)N1CCCCC1 [Example 24, 1-piperidin-1-yl-2-[4-[3-(trifluoromethyl)-[1,2,4]triazolo[4,3-b]pyridazin-6-yl]piperazin-1-yl]ethanone] | > 26
COc1ccc(C(c2ccccc2)N2CCN(c3ccc4nnc(C(F)(F)F)n4n3)CC2)cc1 (centres unmarked) [Example 25, 6-[4-[(4-methoxyphenyl)-phenylmethyl]piperazin-1-yl]-3-(trifluoromethyl)-[1,2,4]triazolo[4,3-b]pyridazine] | 1.1
FC(F)(F)c1ccc(C(c2ccccc2)N2CCN(c3ccc4nnc(C(F)(F)F)n4n3)CC2)cc1 (centres unmarked) [Example 26, 6-[4-[phenyl-[4-(trifluoromethyl)phenyl]methyl]piperazin-1-yl]-3-(trifluoromethyl)-[1,2,4]triazolo[4,3-b]pyridazine] | 1
Cc1cc(NCC2CC[C@@H]3CN(c4ccc5nnc(C(F)(F)F)n5n4)CCN3C2)c2ccccc2n1 (stereo partly drawn) [Example 28, N-[[(9aR)-2-[3-(trifluoromethyl)-[1,2,4]triazolo[4,3-b]pyridazin-6-yl]-1,3,4,6,7,8,9,9a-octahydropyrido[1,6-a]pyrazin-7-yl]methyl]-2-methylquinolin-4-amine] | 2.8
Fc1ccc(N2CCN(c3ccc4nnc(C(F)(F)F)n4n3)CC2)c(F)c1 [Example 29, 6-[4-(2,4-difluorophenyl)piperazin-1-yl]-3-(trifluoromethyl)-[1,2,4]triazolo[4,3-b]pyridazine] | 4.2
FC(F)(F)c1cnc(N2CCCN(c3ccc4nnc(C(F)(F)F)n4n3)CC2)c(Cl)c1 [Example 30, 6-[4-[3-chloro-5-(trifluoromethyl)pyridin-2-yl]-1,4-diazepan-1-yl]-3-(trifluoromethyl)-[1,2,4]triazolo[4,3-b]pyridazine] | 0.38
CC(C)(C)OC(=O)N1[C@@H]2CC[C@H]1CN(c1ccc3nnc(C(F)(F)F)n3n1)C2 [Example 35, tert-butyl (1S,5R)-3-[3-(trifluoromethyl)-[1,2,4]triazolo[4,3-b]pyridazin-6-yl]-3,8-diazabicyclo[3.2.1]octane-8-carboxylate] | 3

Other lines, results leading:

DC50 [µM] | Structure (SMILES)
2.1 | COc1nccc(-c2c(-c3ccc(F)cc3)ncn2C2CCN(c3ccc4nnc(C(F)(F)F)n4n3)CC2)n1 [Example 31, 6-[4-[4-(4-fluorophenyl)-5-(2-methoxypyrimidin-4-yl)imidazol-1-yl]piperidin-1-yl]-3-(trifluoromethyl)-[1,2,4]triazolo[4,3-b]pyridazine]
1.6 | Cc1ccccc1N1CCN(c2ccc3nnc(C(F)(F)F)n3n2)CC1 [Example 32, 6-[4-(2-methylphenyl)piperazin-1-yl]-3-(trifluoromethyl)-[1,2,4]triazolo[4,3-b]pyridazine]
0.68 | FC(F)(F)c1nnc2ccc(N3CCCN(Cc4ccccc4Cl)CC3)nn12 [Example 33, 6-[4-[(2-chlorophenyl)methyl]-1,4-diazepan-1-yl]-3-(trifluoromethyl)-[1,2,4]triazolo[4,3-b]pyridazine]
20 | CCCC(=O)N1CC2CN(c3ccc4nnc(C(F)(F)F)n4n3)CC2C1 (centres unmarked) [Example 34, 1-[2-[3-(trifluoromethyl)-[1,2,4]triazolo[4,3-b]pyridazin-6-yl]-1,3,3a,4,6,6a-hexahydropyrrolo[3,4-c]pyrrol-5-yl]butan-1-one]
0.99 | Cc1cccc(N2CCN(c3ccc4nnc(C(F)(F)F)n4n3)CC2)c1 [Example 36, 6-[4-(3-methylphenyl)piperazin-1-yl]-3-(trifluoromethyl)-[1,2,4]triazolo[4,3-b]pyridazine]
